Measurements from ChEMBL document CHEMBL1201862, “PubChem BioAssay data set” (2004).
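Dose response: 5 concentrations. Exposure: 48 h. Format: 96-well plates. Endpoint: linear interpolation; highest concentration if not reached. The concentration for 50% growth inhibition is given as GI50.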 Activity calls are given as the source filed them. Rule as the data show it: active = GI50 up to about 1.1 µM and inactive = higher.

Experiments:
Assay in all cases: NCI anticancer screen, dose series, 48 h
[1] = tested on: HT-29
[2] = tested on: MDA-N
[3] = tested on: HCT-15
[4] = tested on: UO-31
[5] = tested on: SN12C
[6] = tested on: DU-145
[7] = tested on: HCT-116
[8] = tested on: SNB-19
[9] = tested on: MCF7
[10] = tested on: SF-268
[11] = tested on: CCRF-CEM
[12] = tested on: KM12
[13] = tested on: NCI-H226
[14] = tested on: OVCAR-8
[15] = tested on: ACHN
[16] = tested on: NCI-H23
[17] = tested on: Malme-3M
[18] = tested on: M14
[19] = tested on: HOP-92
[20] = tested on: NCI-H460

| Compound | GI50 [1] | GI50 [2] | GI50 [3] [µM] | GI50 [4] | GI50 [5] | GI50 [6] | GI50 [7] | GI50 [8] | GI50 [9] | GI50 [10] | GI50 [11] | GI50 [12] | GI50 [13] | GI50 [14] | GI50 [15] | GI50 [16] | GI50 [17] | GI50 [18] | GI50 [19] | GI50 [20] |
| --- | --- | --- | --- | --- | --- | --- | --- | --- | --- | --- | --- | --- | --- | --- | --- | --- | --- | --- | --- | --- |
| Cc1ccc(/C=N/Nc2cc(C)c3ccccc3n2)s1 | 3.85 µM (inactive) | 13.8 µM (inactive) | 7.36 | > 100 µM (inactive) | 13.1 µM (inactive) | > 10 µM (inactive) | 3.85 µM (inactive) | 41.6 µM (inactive) | 12 µM (inactive) | 26.1 µM (inactive) | 13.1 µM (inactive) | 16.4 µM (inactive) | 14 µM (inactive) | 23.2 µM (inactive) | 20.1 µM (inactive) | 17.5 µM (inactive) | 5.75 µM (inactive) | 13.7 µM (inactive) | 27.2 µM (inactive) | – |
| CC(=O)O[C@@H]1[C@@H](C)[C@]2(CC(c3ccoc3)OC2O)C2CCC3O[C@]3(C)[C@]2(C)[C@@H]1OC(C)=O (stereo partly drawn) | 32 µM (inactive) | 42.1 µM (inactive) | 25.4 | 37.2 µM (inactive) | 39 µM (inactive) | 48.1 µM (inactive) | 33.7 µM (inactive) | > 100 µM (inactive) | 41.5 µM (inactive) | 91 µM (inactive) | 18.2 µM (inactive) | 23.8 µM (inactive) | 27.7 µM (inactive) | 37.2 µM (inactive) | 38 µM (inactive) | 37.4 µM (inactive) | – | 82.6 µM (inactive) | 34 µM (inactive) | 29.7 µM (inactive) |
| CCCC(=O)N(C(=O)CCC)C1=C(Cl)C(=O)c2ccccc2C1=O | 8.51 µM (inactive) | 7.45 µM (inactive) | 2.1 | 1.62 µM (inactive) | 13.3 µM (inactive) | 14 µM (inactive) | 2.72 µM (inactive) | 6.73 µM (inactive) | 1.84 µM (inactive) | 4.32 µM (inactive) | 2.09 µM (inactive) | 3.49 µM (inactive) | 8.38 µM (inactive) | 6.25 µM (inactive) | 1.28 µM (inactive) | 2.65 µM (inactive) | – | 6.62 µM (inactive) | 4.01 µM (inactive) | 5.22 µM (inactive) |
| O=C1Nc2ccccc2/C1=N/Nc1ccc([N+](=O)[O-])cc1[N+](=O)[O-] | 19.1 µM (inactive) | 44.3 µM (inactive) | 13.8 | 13.2 µM (inactive) | 11.3 µM (inactive) | 7.82 µM (inactive) | 17.9 µM (inactive) | 19.4 µM (inactive) | 8.67 µM (inactive) | 20.9 µM (inactive) | > 100 µM (inactive) | 13.6 µM (inactive) | 12 µM (inactive) | 9.59 µM (inactive) | 7.08 µM (inactive) | 12.4 µM (inactive) | – | 12.9 µM (inactive) | 3.58 µM (inactive) | 7.89 µM (inactive) |
| O=C1CSC(c2ccccc2[N+](=O)[O-])N1c1ccc(-n2c(-c3ccccc3)nc3ccccc3c2=O)cc1 (stereo not drawn) | 54.3 µM (inactive) | > 100 µM (inactive) | 42.3 | 13.9 µM (inactive) | > 100 µM (inactive) | > 100 µM (inactive) | 37.8 µM (inactive) | 32.7 µM (inactive) | 32.4 µM (inactive) | 46.9 µM (inactive) | 41.1 µM (inactive) | 48.5 µM (inactive) | 28.4 µM (inactive) | 40.4 µM (inactive) | 61 µM (inactive) | > 100 µM (inactive) | 39.8 µM (inactive) | – | 27 µM (inactive) | 31.5 µM (inactive) |
| O=C1CC(=O)NC(NN2C(=O)CSC2c2ccc(Cl)cc2)=N1 (stereo not drawn) | 34.1 µM (inactive) | 54.8 µM (inactive) | > 100 | 21.3 µM (inactive) | 18.4 µM (inactive) | > 100 µM (inactive) | > 100 µM (inactive) | – | 61.1 µM (inactive) | 45 µM (inactive) | 25.7 µM (inactive) | 32.8 µM (inactive) | > 100 µM (inactive) | 91.6 µM (inactive) | > 100 µM (inactive) | 25.5 µM (inactive) | 65.8 µM (inactive) | 55.6 µM (inactive) | > 100 µM (inactive) | 51.3 µM (inactive) |
| O=C(CCCCCC(=O)N1CC(CCl)c2ccc([N+](=O)[O-])cc21)N1CC(CCl)c2ccc([N+](=O)[O-])cc21 (stereo not drawn) | – | > 100 µM (inactive) | > 100 | > 100 µM (inactive) | > 100 µM (inactive) | > 100 µM (inactive) | > 100 µM (inactive) | > 100 µM (inactive) | 36.9 µM (inactive) | > 100 µM (inactive) | 91.4 µM (inactive) | > 100 µM (inactive) | > 100 µM (inactive) | > 100 µM (inactive) | > 100 µM (inactive) | > 100 µM (inactive) | – | > 100 µM (inactive) | > 100 µM (inactive) | 34 µM (inactive) |
| C=CCCCN1C(=O)C2C3c4ccccc4C(C=O)(c4ccccc43)C2C1=O (stereo not drawn) | 10 µM (inactive) | 13.6 µM (inactive) | 8.41 | 10.7 µM (inactive) | 7.93 µM (inactive) | 11.4 µM (inactive) | 3.13 µM (inactive) | 13.1 µM (inactive) | 12.3 µM (inactive) | 14.5 µM (inactive) | 3.58 µM (inactive) | 4.02 µM (inactive) | – | 13.4 µM (inactive) | 13.6 µM (inactive) | 12.4 µM (inactive) | 13.6 µM (inactive) | – | 11.3 µM (inactive) | 15.2 µM (inactive) |
| CCCCOC(=O)C1CC[C@H]2[C@@H]3CCc4cc(OC(=O)c5cccc6c(=O)c7ccccc7[nH]c56)ccc4[C@H]3CC[C@]12C (stereo partly drawn) | 10.4 µM (inactive) | 7.83 µM (inactive) | 6.98 | 8.17 µM (inactive) | 8.45 µM (inactive) | 8.17 µM (inactive) | 9.31 µM (inactive) | – | 13.3 µM (inactive) | 9.44 µM (inactive) | – | 9.71 µM (inactive) | 11.4 µM (inactive) | 10.7 µM (inactive) | 8.69 µM (inactive) | 8.95 µM (inactive) | 10.9 µM (inactive) | 11.3 µM (inactive) | 8.3 µM (inactive) | – |
| NCc1ccc(O)c(O)c1 | > 100 µM (inactive) | > 100 µM (inactive) | > 100 | > 100 µM (inactive) | > 100 µM (inactive) | > 100 µM (inactive) | > 100 µM (inactive) | > 100 µM (inactive) | > 100 µM (inactive) | – | 53 µM (inactive) | > 100 µM (inactive) | > 100 µM (inactive) | > 100 µM (inactive) | > 100 µM (inactive) | > 100 µM (inactive) | – | > 100 µM (inactive) | > 100 µM (inactive) | > 100 µM (inactive) |
| COC1(c2ccc(Cl)cc2)SC=C(C)n2c1noc2=O (stereo not drawn) | 33.8 µM (inactive) | > 100 µM (inactive) | > 100 | > 100 µM (inactive) | > 100 µM (inactive) | > 100 µM (inactive) | 78.7 µM (inactive) | > 100 µM (inactive) | > 100 µM (inactive) | > 100 µM (inactive) | > 100 µM (inactive) | 86.9 µM (inactive) | – | – | > 100 µM (inactive) | > 100 µM (inactive) | > 100 µM (inactive) | > 100 µM (inactive) | > 100 µM (inactive) | > 100 µM (inactive) |
| O=C(O)CCc1nc2c(n1-c1ccccc1)C(=O)c1ccccc1C2=O | > 100 µM (inactive) | > 100 µM (inactive) | > 100 | > 100 µM (inactive) | > 100 µM (inactive) | > 100 µM (inactive) | 50.2 µM (inactive) | > 100 µM (inactive) | 97.7 µM (inactive) | > 100 µM (inactive) | > 100 µM (inactive) | > 100 µM (inactive) | > 100 µM (inactive) | > 100 µM (inactive) | > 100 µM (inactive) | > 100 µM (inactive) | – | > 100 µM (inactive) | 0.0226 µM (active) | > 100 µM (inactive) |
| COc1cc(/C=C2\C[C@H]3[C@@H]4CC=C5C=C(N6CCCC6)CC[C@]5(C)[C@H]4CC[C@]3(C)C2=O)cc(OC)c1OC | 2.95 µM (inactive) | 2.32 µM (inactive) | 2.23 | 4.83 µM (inactive) | 2.85 µM (inactive) | 3.44 µM (inactive) | 1.91 µM (inactive) | 3.73 µM (inactive) | 3.22 µM (inactive) | 2.23 µM (inactive) | 2.82 µM (inactive) | 1.91 µM (inactive) | 13.6 µM (inactive) | 2.16 µM (inactive) | 2.32 µM (inactive) | 2.52 µM (inactive) | 2.01 µM (inactive) | 2.19 µM (inactive) | 2.21 µM (inactive) | – |
| Cn1c2c(c3ccccc31)CC(=S)N1CCCC(CC2O)C1 (stereo not drawn) | > 100 µM (inactive) | > 100 µM (inactive) | > 100 | 45.8 µM (inactive) | > 100 µM (inactive) | > 100 µM (inactive) | > 100 µM (inactive) | > 100 µM (inactive) | > 100 µM (inactive) | > 100 µM (inactive) | – | > 100 µM (inactive) | > 100 µM (inactive) | > 100 µM (inactive) | > 100 µM (inactive) | > 100 µM (inactive) | > 100 µM (inactive) | – | > 100 µM (inactive) | > 100 µM (inactive) |
| COP(=O)(O)/C=C/C(NC(=O)C(Cl)(Cl)Cl)c1ccccc1 (stereo not drawn) | > 100 µM (inactive) | > 100 µM (inactive) | > 100 | > 100 µM (inactive) | > 100 µM (inactive) | > 100 µM (inactive) | > 100 µM (inactive) | > 100 µM (inactive) | > 100 µM (inactive) | > 100 µM (inactive) | – | > 100 µM (inactive) | > 100 µM (inactive) | > 100 µM (inactive) | > 100 µM (inactive) | > 100 µM (inactive) | > 100 µM (inactive) | > 100 µM (inactive) | > 100 µM (inactive) | > 100 µM (inactive) |
